Reference: patent US20200264182A1, “METHOD FOR DETECTING PROSTATE CANCER” (J-OIL MILLS, INC., priority 2017, published 2020)

Assays:
[1] = FAC binding constant; conditions: at 25° C.
Procedure: (§1) Details of the FAC method are described in Patent Document 2 filed by some of the present applicants, for example.
(§2) Binding constants (at 25° C.) of PhoSL, SRL, NSL and LSL belonging to the fucose α1→6 specific lectin for various sugar chains are shown in Tables 2 to 5.

[2] = FAC binding constant (Table 5 entry); conditions: Table 5: sugar chain having no fucose; at 25° C.
Procedure: as §1, §2

[3] = sugar chain having fucose other than α1→6 fucose

LSL: fucose α1→6 specific lectin that can be extracted from Lepista sordida, SEQ ID No. 3
120000 M⁻¹: Binding constant for sugar chain No. 602 ([1]; sugar chain having α1→6 fucose)
<1000 M⁻¹: Binding constant for sugar chain No. 728 ([1]; Table 3: sugar chain having fucose other than α1→6 fucose) | Binding constant for sugar chain No. 419 [1, 3] | Binding constant for sugar chain No. 420 [1, 3] | Binding constant for sugar chain No. 718 [1, 3] | Binding constant for sugar chain No. 719 [1, 3] | Binding constant for sugar chain No. 720 [1, 3] | Binding constant for sugar chain No. 721 [1, 3] | Binding constant for sugar chain No. 722 [1, 3] | Binding constant for sugar chain No. 723 [1, 3] | Binding constant for sugar chain No. 726 [1, 3] | Binding constant for sugar chain No. 727 [1, 3] | Binding constant for sugar chain No. 729 [1, 3] | Binding constant for sugar chain No. 730 [1, 3] | Binding constant for sugar chain No. 731 [1, 3] | Binding constant for sugar chain No. 739 [1, 3] | Binding constant for sugar chain No. 909 [1, 3] | Binding constant for sugar chain No. 910 [1, 3] | Binding constant for sugar chain No. 931 [1, 3] | Binding constant for sugar chain No. 932 [1, 3] | Binding constant for sugar chain No. 933 [1, 3] | Binding constant for sugar chain No. 001 ([1]; sugar chain having no fucose) | Binding constant for sugar chain No. 002 ([1]; sugar chain having no fucose) | Binding constant for sugar chain No. 003 ([1]; sugar chain having no fucose) | Binding constant for sugar chain No. 004 ([1]; sugar chain having no fucose) | Binding constant for sugar chain No. 005 ([1]; sugar chain having no fucose) | Binding constant for sugar chain No. 006 ([1]; sugar chain having no fucose) | Binding constant for sugar chain No. 007 ([1]; sugar chain having no fucose) | Binding constant for sugar chain No. 008 ([1]; sugar chain having no fucose) | Binding constant for sugar chain No. 009 ([1]; sugar chain having no fucose) | Binding constant for sugar chain No. 010 ([1]; sugar chain having no fucose) | Binding constant for sugar chain No. 011 ([1]; sugar chain having no fucose) | Binding constant for sugar chain No. 012 ([1]; sugar chain having no fucose) | Binding constant for sugar chain No. 013 ([1]; sugar chain having no fucose) | Binding constant for sugar chain No. 014 ([1]; sugar chain having no fucose) | Binding constant for sugar chain No. 101 ([1]; sugar chain having no fucose) | Binding constant for sugar chain No. 103 ([1]; sugar chain having no fucose) | Binding constant for sugar chain No. 104 ([1]; sugar chain having no fucose) | Binding constant for sugar chain No. 105 ([1]; sugar chain having no fucose) | Binding constant for sugar chain No. 107 ([1]; sugar chain having no fucose) | Binding constant for sugar chain No. 108 ([1]; sugar chain having no fucose) | Binding constant for sugar chain No. 301 ([1]; sugar chain having no fucose) | Binding constant for sugar chain No. 304 ([1]; sugar chain having no fucose) | Binding constant for sugar chain No. 305 ([1]; sugar chain having no fucose) | Binding constant for sugar chain No. 307 ([1]; sugar chain having no fucose) | Binding constant for sugar chain No. 308 ([1]; sugar chain having no fucose) | Binding constant for sugar chain No. 313 ([1]; sugar chain having no fucose) | Binding constant for sugar chain No. 314 ([1]; sugar chain having no fucose) | Binding constant for sugar chain No. 323 ([1]; sugar chain having no fucose) | Binding constant for sugar chain No. 501 ([1]; sugar chain having no fucose) | Binding constant for sugar chain No. 502 ([1]; sugar chain having no fucose) | Binding constant for sugar chain No. 503 ([1]; sugar chain having no fucose) | Binding constant for sugar chain No. 504 ([1]; sugar chain having no fucose) | Binding constant for sugar chain No. 701 ([1]; sugar chain having no fucose) | Binding constant for sugar chain No. 702 ([1]; sugar chain having no fucose) | Binding constant for sugar chain No. 703 ([1]; sugar chain having no fucose) | Binding constant for sugar chain No. 704 ([1]; sugar chain having no fucose) | Binding constant for sugar chain No. 705 ([1]; sugar chain having no fucose) | Binding constant for sugar chain No. 706 ([1]; sugar chain having no fucose) | Binding constant for sugar chain No. 707 ([1]; sugar chain having no fucose) | Binding constant for sugar chain No. 708 ([1]; sugar chain having no fucose) | Binding constant for sugar chain No. 709 ([1]; sugar chain having no fucose) | Binding constant for sugar chain No. 710 ([1]; sugar chain having no fucose) | Binding constant for sugar chain No. 711 ([1]; sugar chain having no fucose) | Binding constant for sugar chain No. 712 ([1]; sugar chain having no fucose) | Binding constant for sugar chain No. 713 ([1]; sugar chain having no fucose) | Binding constant for sugar chain No. 715 ([1]; sugar chain having no fucose) | Binding constant for sugar chain No. 716 ([1]; sugar chain having no fucose) | Binding constant for sugar chain No. 717 ([1]; sugar chain having no fucose) | Binding constant for sugar chain No. 724 ([1]; sugar chain having no fucose) | Binding constant for sugar chain No. 725 ([1]; sugar chain having no fucose) | Binding constant for sugar chain No. 732 ([1]; sugar chain having no fucose) | Binding constant for sugar chain No. 733 ([1]; sugar chain having no fucose) | Binding constant for sugar chain No. 734 ([1]; sugar chain having no fucose) | Binding constant for sugar chain No. 735 ([1]; sugar chain having no fucose) | Binding constant for sugar chain No. 736 ([1]; sugar chain having no fucose) | Binding constant for sugar chain No. 737 ([1]; sugar chain having no fucose) | Binding constant for sugar chain No. 738 ([1]; sugar chain having no fucose) | Binding constant for sugar chain No. 901 ([1]; sugar chain having no fucose) | Binding constant for sugar chain No. 902 ([1]; sugar chain having no fucose) | Binding constant for sugar chain No. 903 ([1]; sugar chain having no fucose) | Binding constant for sugar chain No. 905 ([1]; sugar chain having no fucose) | Binding constant for sugar chain No. 906 ([1]; sugar chain having no fucose) | Binding constant for sugar chain No. 907 ([1]; sugar chain having no fucose) | Binding constant for sugar chain No. 728 [2]
190000 M⁻¹: Binding constant for sugar chain No. 015 ([1]; sugar chain having α1→6 fucose)
320000 M⁻¹: Binding constant for sugar chain No. 405 ([1]; sugar chain having α1→6 fucose)
340000 M⁻¹: Binding constant for sugar chain No. 403 ([1]; sugar chain having α1→6 fucose)
390000 M⁻¹: Binding constant for sugar chain No. 404 ([1]; sugar chain having α1→6 fucose)
280000 M⁻¹: Binding constant for sugar chain No. 407 ([1]; sugar chain having α1→6 fucose) | Binding constant for sugar chain No. 413 ([1]; sugar chain having α1→6 fucose)
350000 M⁻¹: Binding constant for sugar chain No. 401 ([1]; sugar chain having α1→6 fucose)
200000 M⁻¹: Binding constant for sugar chain No. 203 ([1]; sugar chain having α1→6 fucose) | Binding constant for sugar chain No. 402 ([1]; sugar chain having α1→6 fucose)
240000 M⁻¹: Binding constant for sugar chain No. 601 ([1]; sugar chain having α1→6 fucose)
220000 M⁻¹: Binding constant for sugar chain No. 406 ([1]; sugar chain having α1→6 fucose) | Binding constant for sugar chain No. 410 ([1]; sugar chain having α1→6 fucose) | Binding constant for sugar chain No. 418 ([1]; sugar chain having α1→6 fucose)
230000 M⁻¹: Binding constant for sugar chain No. 201 ([1]; sugar chain having α1→6 fucose) | Binding constant for sugar chain No. 202 ([1]; sugar chain having α1→6 fucose)
